Laboratory results as given in ChEMBL document CHEMBL5465560, “Selectivity Literature for EUbOPEN Chemogenomic Library” (2024).

Tests used:
Details in all cases: at 10 µM
[1] = biological target: BMP-2-inducible protein kinase (Homo sapiens) (UniProt Q9NSY1); test: Selectivity interaction (KinomeScan (DiscoverX)) EUB0000229b BMP2K
[2] = biological target: T1, Serine/threonine-protein kinase Nek3 (Homo sapiens) (UniProt P51956); test: Selectivity interaction (KinomeScan (DiscoverX)) EUB0000229b NEK3
T1 sequence (whole entry): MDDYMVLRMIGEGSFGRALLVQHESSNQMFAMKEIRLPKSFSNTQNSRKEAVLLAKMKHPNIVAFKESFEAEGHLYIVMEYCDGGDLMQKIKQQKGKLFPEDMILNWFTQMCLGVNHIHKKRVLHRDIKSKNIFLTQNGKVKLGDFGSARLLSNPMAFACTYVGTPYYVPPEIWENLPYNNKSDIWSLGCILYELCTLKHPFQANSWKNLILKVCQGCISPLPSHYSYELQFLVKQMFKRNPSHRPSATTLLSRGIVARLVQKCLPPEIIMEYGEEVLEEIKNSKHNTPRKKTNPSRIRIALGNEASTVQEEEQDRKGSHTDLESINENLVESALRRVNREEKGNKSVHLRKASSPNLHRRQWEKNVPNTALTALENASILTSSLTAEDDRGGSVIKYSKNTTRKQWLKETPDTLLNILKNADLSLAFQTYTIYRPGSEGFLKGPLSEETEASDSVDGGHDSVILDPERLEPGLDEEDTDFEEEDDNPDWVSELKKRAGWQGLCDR

[3] = biological target: TGF-beta receptor type-2 (Homo sapiens) (UniProt P37173); test: Selectivity interaction (KinomeScan (DiscoverX)) EUB0000666a TGFBR2
TGF-beta receptor type-2 (Homo sapiens), sequence (P37173 whole entry): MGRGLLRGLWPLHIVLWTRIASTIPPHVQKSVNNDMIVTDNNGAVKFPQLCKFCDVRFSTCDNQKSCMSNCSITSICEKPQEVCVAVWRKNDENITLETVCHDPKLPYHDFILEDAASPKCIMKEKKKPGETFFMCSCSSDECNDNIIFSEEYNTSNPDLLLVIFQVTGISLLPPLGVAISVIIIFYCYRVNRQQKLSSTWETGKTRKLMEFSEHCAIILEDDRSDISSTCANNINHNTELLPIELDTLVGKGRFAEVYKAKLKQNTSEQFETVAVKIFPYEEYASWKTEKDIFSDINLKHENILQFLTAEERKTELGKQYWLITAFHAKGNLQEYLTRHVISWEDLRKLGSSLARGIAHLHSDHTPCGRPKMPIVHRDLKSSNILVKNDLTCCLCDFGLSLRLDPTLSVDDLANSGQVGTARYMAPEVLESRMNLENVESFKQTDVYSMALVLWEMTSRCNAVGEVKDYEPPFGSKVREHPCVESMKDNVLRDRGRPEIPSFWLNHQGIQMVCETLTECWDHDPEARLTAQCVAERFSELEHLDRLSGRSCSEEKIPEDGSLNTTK

[4] = biological target: T2, Mitogen-activated protein kinase kinase kinase 6 (Homo sapiens) (UniProt O95382); test: Selectivity interaction (KinomeScan (DiscoverX)) EUB0000655a MAP3K6
T2 sequence (whole entry): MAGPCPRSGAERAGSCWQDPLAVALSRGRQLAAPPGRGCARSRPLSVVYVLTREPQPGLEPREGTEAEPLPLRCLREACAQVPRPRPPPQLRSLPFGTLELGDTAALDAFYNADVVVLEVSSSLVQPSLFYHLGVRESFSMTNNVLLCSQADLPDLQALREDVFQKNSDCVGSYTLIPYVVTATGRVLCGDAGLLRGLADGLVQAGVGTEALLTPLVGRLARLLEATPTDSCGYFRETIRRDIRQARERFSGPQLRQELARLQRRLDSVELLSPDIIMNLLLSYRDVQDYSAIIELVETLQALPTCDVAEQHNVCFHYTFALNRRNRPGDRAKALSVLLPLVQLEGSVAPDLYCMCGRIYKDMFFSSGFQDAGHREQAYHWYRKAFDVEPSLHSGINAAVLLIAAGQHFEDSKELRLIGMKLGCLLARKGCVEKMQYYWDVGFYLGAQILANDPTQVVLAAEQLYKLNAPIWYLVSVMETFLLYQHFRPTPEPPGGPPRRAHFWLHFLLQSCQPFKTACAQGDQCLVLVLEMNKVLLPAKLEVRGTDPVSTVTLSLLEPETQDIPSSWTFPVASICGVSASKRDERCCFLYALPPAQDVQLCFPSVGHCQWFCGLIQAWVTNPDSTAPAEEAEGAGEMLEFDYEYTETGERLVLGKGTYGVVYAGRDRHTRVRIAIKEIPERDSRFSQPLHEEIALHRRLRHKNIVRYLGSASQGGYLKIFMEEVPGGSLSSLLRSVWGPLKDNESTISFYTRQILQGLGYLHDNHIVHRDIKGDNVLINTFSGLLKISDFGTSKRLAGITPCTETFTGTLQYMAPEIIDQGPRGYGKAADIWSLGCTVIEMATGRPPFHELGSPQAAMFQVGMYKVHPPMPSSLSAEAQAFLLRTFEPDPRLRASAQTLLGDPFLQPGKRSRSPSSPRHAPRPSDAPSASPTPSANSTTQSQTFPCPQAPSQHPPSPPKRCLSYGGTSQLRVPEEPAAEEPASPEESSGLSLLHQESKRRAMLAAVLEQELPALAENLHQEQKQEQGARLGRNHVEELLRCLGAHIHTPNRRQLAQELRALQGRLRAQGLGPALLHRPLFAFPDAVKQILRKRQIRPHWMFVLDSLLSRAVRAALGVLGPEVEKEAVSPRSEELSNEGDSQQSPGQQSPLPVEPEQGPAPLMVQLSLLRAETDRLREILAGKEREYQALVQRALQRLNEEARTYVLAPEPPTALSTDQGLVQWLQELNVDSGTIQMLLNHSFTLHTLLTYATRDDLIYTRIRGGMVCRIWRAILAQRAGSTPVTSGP

[5] = biological target: T3, 3-phosphoinositide-dependent protein kinase 1 (Homo sapiens) (UniProt O15530); test: Selectivity interaction (KinomeScan (DiscoverX)) EUB0000655a PDPK1
T3 sequence (whole entry): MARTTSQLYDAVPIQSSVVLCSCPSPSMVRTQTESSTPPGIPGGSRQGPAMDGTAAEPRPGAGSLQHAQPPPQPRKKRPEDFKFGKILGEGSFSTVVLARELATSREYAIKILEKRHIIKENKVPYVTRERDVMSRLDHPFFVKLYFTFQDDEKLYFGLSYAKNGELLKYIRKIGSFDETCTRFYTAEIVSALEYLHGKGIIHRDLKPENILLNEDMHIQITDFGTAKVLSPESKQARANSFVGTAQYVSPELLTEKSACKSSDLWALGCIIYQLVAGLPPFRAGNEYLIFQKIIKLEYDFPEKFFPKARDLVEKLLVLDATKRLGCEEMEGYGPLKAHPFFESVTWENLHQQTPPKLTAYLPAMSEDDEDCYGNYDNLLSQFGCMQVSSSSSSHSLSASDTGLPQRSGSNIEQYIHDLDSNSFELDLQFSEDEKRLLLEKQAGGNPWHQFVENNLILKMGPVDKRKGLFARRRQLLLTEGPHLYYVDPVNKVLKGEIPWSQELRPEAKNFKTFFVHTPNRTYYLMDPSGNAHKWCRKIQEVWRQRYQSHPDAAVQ

BMP-2-inducible protein kinase (Homo sapiens), sequence (Q9NSY1 whole entry, looked up): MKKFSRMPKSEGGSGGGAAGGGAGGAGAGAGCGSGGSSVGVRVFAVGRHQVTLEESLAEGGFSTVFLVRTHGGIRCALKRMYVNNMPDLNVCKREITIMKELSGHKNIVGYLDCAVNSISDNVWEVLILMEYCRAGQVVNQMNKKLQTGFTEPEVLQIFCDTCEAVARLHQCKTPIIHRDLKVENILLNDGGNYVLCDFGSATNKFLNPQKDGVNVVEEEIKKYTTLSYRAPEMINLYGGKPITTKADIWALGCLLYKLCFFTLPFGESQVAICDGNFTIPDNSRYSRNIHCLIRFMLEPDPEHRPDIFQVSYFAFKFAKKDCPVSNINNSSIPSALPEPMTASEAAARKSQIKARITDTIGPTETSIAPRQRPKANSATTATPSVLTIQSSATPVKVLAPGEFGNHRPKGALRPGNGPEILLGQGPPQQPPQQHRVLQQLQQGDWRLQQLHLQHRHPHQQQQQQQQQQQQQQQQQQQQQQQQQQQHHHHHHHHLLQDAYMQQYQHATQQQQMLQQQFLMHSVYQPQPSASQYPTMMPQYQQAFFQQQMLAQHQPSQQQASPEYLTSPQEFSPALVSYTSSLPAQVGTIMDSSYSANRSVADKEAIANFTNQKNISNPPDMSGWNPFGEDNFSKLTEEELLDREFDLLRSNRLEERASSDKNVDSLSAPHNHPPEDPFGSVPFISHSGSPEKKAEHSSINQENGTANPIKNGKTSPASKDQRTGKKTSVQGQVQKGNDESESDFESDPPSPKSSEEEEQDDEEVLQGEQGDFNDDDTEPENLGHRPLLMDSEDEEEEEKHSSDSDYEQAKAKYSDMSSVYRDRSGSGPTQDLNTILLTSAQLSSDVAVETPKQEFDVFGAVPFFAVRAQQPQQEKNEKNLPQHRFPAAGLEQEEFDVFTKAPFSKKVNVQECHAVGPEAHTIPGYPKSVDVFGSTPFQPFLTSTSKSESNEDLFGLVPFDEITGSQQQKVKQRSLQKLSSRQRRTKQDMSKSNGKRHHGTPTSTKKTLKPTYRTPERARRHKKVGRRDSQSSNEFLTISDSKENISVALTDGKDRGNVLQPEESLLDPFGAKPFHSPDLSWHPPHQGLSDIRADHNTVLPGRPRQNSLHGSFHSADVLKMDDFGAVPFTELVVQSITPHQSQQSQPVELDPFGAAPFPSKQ

SMILES: COc1cc(N(C)c2ccnc3ccc(C(F)(F)F)cc23)cc(OC)c1OC
- % binding [1]: 99%
- % binding [2]: 80%

SMILES: O=C(NOC[C@H](O)CO)c1ccc(F)c(F)c1Nc1ccc(I)cc1F
- % of control [3]: 100%

SMILES: CN(C)CCOc1ccc(-c2nc(-c3ccncc3)c(-c3ccc4c(c3)CC/C4=N\O)[nH]2)cc1
- % of control [4]: 100%
- % of control [5]: 88%
